# Laboratory results as given in patent publication US11944662B2, “Methods and compositions for preventing or treating ophthalmic conditions” (Stealth BioTherapeutics Inc., priority 2009, dated 2024).
# Where two headings read alike, the source gives them in different places. Where a SMILES comes first, the peptide text is derived from it. Where no end group is shown, it is not given here. [ ]: non-standard residue; d: D form. Dmt = Cc1cc(O)cc(C)c1C[C@H](N)C(=O)O
# Key:
# GTM cells [1] = conditions: n=3
# Description: (§1) FIG. 37 is a graph showing the fluorescence intensity of ROS of GTM and HTM cells in control and SS-31-treated groups, as measured using FACS analysis.
# HTM cells [2] = conditions: n=4
# Description: as §1
# GTM cells [3] = conditions: n=4
# Description: (§4) The effects of SS-31 at mitigating acute oxidative injury in GTM and HTM cells was investigated.
# HTM cells [4] = conditions: n=4; remark: listed apart in the source
# Description: as §4
# [5] = system: primary human retinal pigment epithelial (RPE) cells; conditions: different concentrations, 24 h
# Procedure: Primary cultured human RPE cells were incubated with different concentrations of SS-31 alone for a period of 24 h, and cell viability was determined by a MTT assay (FIG. 22).
# HRECs = assay: Survival of HRECs in high glucose, Annexin V/PI flow cytometry; format: cell-based, human; conditions: 24 hours after treatment
# Procedure: FIGS. 1A and 1B show the effects of different concentrations of SS-31 (10 nM, 100 nM, 1 μM and 10 μM) used as co-treatment with 30 mM glucose (HG). […] FIG. 1B is a graphic representation of the survival ratio for HRECs.
# See generally, Li B, Tang S B, Zhang G, Chen J H, Li B J. Culture and characterization of human retinal capillary endothelial cell. Chin Ophthal Res 2005; 23: 20-2; Premanand C, Rema M, Sameer M Z, Sujatha M, Balasubramanyam M. Effect of curcumin on proliferation of human retinal endothelial cells under in vitro conditions. Invest Ophthalmol Vis Sci 2006; 47: 2179-84.
# Briefly, HREC cells were divided into three groups: a normal control group; a group administered 30 mM glucose; and a group administered 30 mM glucose+SS-31. Survival of HRECs in high glucose co-treated with different concentrations of SS-31 (10 nM, 100 nM, 1 μM, 10 μM) was measured using an Annexin V+PI assay and flow cytometry. See generally, Koopman, G., Reutelingsperger, C. P., Kuijten, G. A. M., Keehnen, R. M. J., Pals, S. T., and van Oers, M. H. J. 1994. Annexin V for flow cytometric detection of phosphatidylserine expression on B cells undergoing apoptosis. Blood 84: 1415; Homburg, C. H., de Haas, M., von dem Borne, A. E., Verhoeven, A. J., Reutelingsperger, C. P., and Roos, D. 1995. Human neutrophils lose their surface Fc gamma Rill and acquire Annexin V binding sites during apoptosis in vitro. Blood 85: 532; Vermes, I., Haanen, C., Steffens-Nakken, H., and Reutelingsperger, C. 1995. A novel assay for apoptosis-flow cytometric detection of phosphatidylserine expression on early apoptotic cells using fluorescein labelled Annexin V. J. Immunol. Meth. 184: 39; Fadok, V. A., Voelker, D. R., Campbell, P. A., Cohen, J. J., Bratton, D. L., and Henson, P. M. 1992. Exposure of phosphatidylserine on the surface of apoptotic lymphocytes triggers specific recognition and removal by macrophages. J. Immunol. 148: 2207.
# The survival of HRECs in high glucose co-treated with SS-31 was tested at 24 h and 48 h.
# [6] = system: trabecular meshwork cells from glaucoma patients (GTM)
# Procedure: (§2) To assess whether SS-31 had cytotoxic effects of HTM or GTM cells, various concentrations of SS-31 were administered to cells and the cytotoxicity was measured using an LDH assay. A LDH cytotoxicity assay is a colorimetric method of assaying cellular cytotoxicity. The assay quantitatively measures the stable, cytosolic, lactate dehydrogenase (LDH) enzyme, which is released from damaged cells. The released LDH is measured with a coupled enzymatic reaction that results in the conversion of a tetrazolium salt (iodonitrotetrazolium (INT)) into a red color formazan by diaphorase. […] See generally, Haslam, G. et al. (2005) Anal. Biochem. 336: 187; Tarnawski, A. (2005) Biochem. Biophys. Res. Comm. 333: 207; Round, J. L et al. (2005) J. Exp. Med. 201: 419; Bose, C. et al. (2005) Am. J. Physiol. Gastr. L. 289: G926; Chen, A. and Xu, J. (2005) Am. J. Physiol. Gastr. L. 288: G447. The LDH activity is determined as NADH oxidation or INT reduction over a defined time period.
# [7] = system: trabecular meshwork cells from non-diseased individuals (HTM)
# Procedure: as §2
# [8] = system: inner blood-retinal barrier; assay: Inner blood-retinal barrier function, Evans blue extravasation, diabetic rats; format: in vivo, Sprague-Dawley rat; conditions: compared to rats on a HFD not administered SS-20 or SS-31
# Description: FIGS. 10A-10B is a series of charts showing the integrity of the blood-retinal barrier of normal rats (NRC), diabetic rats, and diabetic rats treated with SS-20 or SS-31, as analyzed by Evans blue extravasation. (10A) diabetes induced by STZ; (10B) diabetes induced by HFD/STZ.
# The effect of the aromatic-cationic peptides on the inner blood-retinal barrier function in the SD rat model was investigated.
# lenses of diabetic rats [9] = assay: Cataract formation in lenses, HFD/STZ diabetic rat model; format: in vivo, Sprague-Dawley rat; conditions: for Percentage of opacity (%) / Percentage of severe opacity (%) / Turbidity degree ++++ (count) / Turbidity degree +++ (count) / Turbidity degree ++ (count) / Turbidity degree + (count) / Turbidity degree − (count): HFD/STZ rat model; for Turbidity degree ++++ (count): ++++: severely opaque; for Turbidity degree +++ (count): +++: moderately opaque; for Turbidity degree ++ (count): ++: opaque; for Turbidity degree + (count): +: mildly opaque; for Turbidity degree − (count): −: transparent
# Procedure: The example describes the results of such experiments.
# (§3) A rat model of diabetes was established by combination of 6-week HFD and low dose of STZ (30 mg/kg) injection or a single high dose of STZ (65 mg/kg) in SD rats. See generally, K. Srinivasan, B. Viswanad, Lydia Asrat, C. L. Kaul and P. Ramarao, Combination of high-fat diet-fed and low-dose streptozotocin-treated rat: A model for type 2 diabetes and pharmacological screening, Pharmacological Research, 52(4): 313-320, 2005. Rats of the same batch fed with normal chow (NRC) were used as a control.
# lenses of diabetic rats [10] = assay: Cataract formation in lenses, STZ diabetic rat model; format: in vivo, Sprague-Dawley rat; conditions: 10 mg (Table 9: 10 mg/kg s.c.)
# Procedure: as §3
compound,measurement,setting,value
"Cc1cc(O)cc(C)c1C[C@H](NC(=O)[C@H](N)CCCNC(=N)N)C(=O)N[C@@H](CCCCN)C(=O)N[C@@H](Cc1ccccc1)C(N)=O [SS-31, D-Arg-2′,6′-Dmt-Lys-Phe-NH2] (H-[dR][Dmt]KF-NH2)",percentage of intracellular ROS production compared to GTM control,GTM cells [1]; H2O2 + SS-31 10^−6 M,84.5±8.75%
same,percentage of intracellular ROS production compared to GTM control,GTM cells [1]; H2O2 + SS-31 10^−7 M,102.0±5.69%
same,percentage of intracellular ROS production compared to GTM control,GTM cells [1]; H2O2 + SS-31 10^−8 M,133.0±5.17%
same,"percentage of intracellular ROS production, HTM groups",HTM cells [2]; H2O2 + SS-31 10^−6 M,79±2.39%
same,"percentage of intracellular ROS production, HTM groups",HTM cells [2]; H2O2 + SS-31 10^−7 M,91.8±3.49%
same,"percentage of intracellular ROS production, HTM groups",HTM cells [2]; H2O2 + SS-31 10^−8 M,129.0±8.24%
same,percentage of fluorescence intensity of TMRM compared to GTM control,GTM cells [3]; H2O2 + SS-31 10^−6 M,56.2±4.04%
same,percentage of fluorescence intensity of TMRM compared to GTM control,GTM cells [3]; H2O2 + SS-31 10^−7 M,50.3±4.46%
same,percentage of fluorescence intensity of TMRM compared to GTM control,GTM cells [3]; H2O2 + SS-31 10^−8 M,47.5±2.82%
same,"percentage of fluorescence intensity of TMRM, HTM groups",HTM cells [4]; H2O2 + SS-31 10^−6 M,57.7±1.80%
same,"percentage of fluorescence intensity of TMRM, HTM groups",HTM cells [4]; H2O2 + SS-31 10^−7 M,50.6±3.06%
same,"percentage of fluorescence intensity of TMRM, HTM groups",HTM cells [4]; H2O2 + SS-31 10^−8 M,49.4±2.27%
same,"cell viability (MTT assay), SS-31 alone",[5],did not adversely effect
same,survival ratios for HRECs (Q3),HRECs; 30 mM glucose + SS-31 10 nM,84.3%
same,survival ratios for HRECs (Q3),HRECs; 30 mM glucose + SS-31 100 nM,90.7%
same,survival ratios for HRECs (Q3),HRECs; 30 mM glucose + SS-31 1 μM,92.8%
same,survival ratios for HRECs (Q3),HRECs; 30 mM glucose + SS-31 10 μM,94.3%
same,cytotoxicity,[6]; at 10^−3 M,no cytotoxicity
same,viability (LDH cytotoxicity assay),[6]; various concentrations,does not affect the viability
same,cytotoxicity,[7]; at 10^−3 M,no cytotoxicity
same,viability (LDH cytotoxicity assay),[7]; various concentrations,does not affect the viability
F[dR]FK-NH2 [SS-20],inner blood-retinal barrier function,[8],improved
same,cataract formation in the lenses of diabetic rats,"lenses of diabetic rats [9]; HFD/STZ and STZ models (FIGS. 6 and 7, Tables 11 and 12)",prevention or reversal of cataract formation
same,Percentage of opacity (%),lenses of diabetic rats [9]; 3 mg (Table 7: 3 mg/kg s.c.),75.0%
same,Percentage of severe opacity (%),lenses of diabetic rats [9]; 3 mg (Table 7: 3 mg/kg s.c.),25.0%
same,Turbidity degree ++++ (count),lenses of diabetic rats [9]; 3 mg (Table 7: 3 mg/kg s.c.),1
same,Turbidity degree +++ (count),lenses of diabetic rats [9]; 3 mg (Table 7: 3 mg/kg s.c.),0
same,Turbidity degree ++ (count),lenses of diabetic rats [9]; 3 mg (Table 7: 3 mg/kg s.c.),1
same,Turbidity degree + (count),lenses of diabetic rats [9]; 3 mg (Table 7: 3 mg/kg s.c.),1
same,Turbidity degree − (count),lenses of diabetic rats [9]; 3 mg (Table 7: 3 mg/kg s.c.),1
same,Percentage of opacity (%),lenses of diabetic rats [9]; 10 mg (Table 7: 10 mg/kg s.c.),75.0%
same,Percentage of severe opacity (%),lenses of diabetic rats [9]; 10 mg (Table 7: 10 mg/kg s.c.),0%
same,Turbidity degree ++++ (count),lenses of diabetic rats [9]; 10 mg (Table 7: 10 mg/kg s.c.),0
same,Turbidity degree +++ (count),lenses of diabetic rats [9]; 10 mg (Table 7: 10 mg/kg s.c.),0
same,Turbidity degree ++ (count),lenses of diabetic rats [9]; 10 mg (Table 7: 10 mg/kg s.c.),1
same,Turbidity degree + (count),lenses of diabetic rats [9]; 10 mg (Table 7: 10 mg/kg s.c.),2
same,Turbidity degree − (count),lenses of diabetic rats [9]; 10 mg (Table 7: 10 mg/kg s.c.),1
same,Percentage of opacity (%),lenses of diabetic rats [10],60.0%
same,Percentage of severe opacity (%),lenses of diabetic rats [10],20.0%
same,Opacity degree ++++ (count),lenses of diabetic rats [10]; ++++: severely opaque,1
same,Opacity degree +++ (count),lenses of diabetic rats [10]; +++: moderately opaque,0
same,Opacity degree ++ (count),lenses of diabetic rats [10]; ++: opaque,2
same,Opacity degree + (count),lenses of diabetic rats [10]; +: mildly opaque,0
same,Opacity degree − (count),lenses of diabetic rats [10]; −: transparent,2
